Source: patent US20130053435A1, “Methods of Treating Alcohol Intoxication, Alcohol Use Disorders and Alcohol Abuse Which Comprises the Administration of Dihydromyricetin” (priority 2011, published 2013)
“And” between values parts separate entries of the source, which are not always exact repeats. Equal entries are not always repeated.

Tests used:
[1] = test system: EtOH withdrawal anxiety in rats; test: Elevated plus-maze (EPM) after EtOH withdrawal; format: in vivo, rat
Experimental: 48 hr after injection, rats were sub-divided into 3 groups to measure signs of EtOH withdrawal.
Anxiety and locomotion/ataxia associated with EtOH withdrawal was measured on an elevated plus-maze in EtOH-withdrawn rats (EPM, FIG. 12A). Spent time was measured in minutes. The plus-maze was constructed and the measurements were scored as described previously. See Liang et al. (2004) J Pharmacol Exp Ther 310:1234-1245. Briefly, the maze was elevated 1 m above the floor, and contained four 51 cm-long, 11.5 cm-wide arms arranged at right angles. The closed arms had opaque walls 30 cm high, extending the length of the arm. At the time of the test, each animal was placed in the center of the maze facing an open arm and allowed to explore for a 5-min session. During the session, the animal's behavior (e.g. number of arm entries and time spent in each arm per entry) was recorded on a camcorder

GABAARs = test: Whole-cell patch-clamp, DGCs in hippocampal slices 48 hr after in vivo treatment; format: cell-based, rat; conditions: 48 hr withdrawal
Experimental: Transverse slices (400 μm) of dorsal hippocampus were obtained with a Vibratome (VT 100, Technical Products International, St. Louis, Mo.) and standard techniques known in the art. Slices were continuously perfused with artificial cerebrospinal fluid (ACSF). See Liang, J., et al. (2007) J Neurosci 27:12367-12377.
Whole-cell patch-clamp recordings were obtained at 34±0.5° C. from cells located in the DG layer at a holding potential of −70 mV, during perfusion with artificial cerebrospinal fluid (ACSF, 125 mM NaCl, 2.5 mM KCl, 2 mM CaCl2, 2 mM MgCl2, 26 mM NaHCO3, and 10 mM D-glucose). The ACSF was continuously bubbled with 95% O2-5% CO2 to ensure adequate oxygenation of slices and a pH of 7.4. Patch electrodes were pulled from thin-wall borosilicate glass pipettes with resistances of 7.5-9 MΩ and were filled with pipette solution (i.e. 137 mM CsCl, 2 mM MgCl2, 1 mM CaCl2, 11 mM EGTA, 10 mM HEPES and 3 mM ATP, pH adjusted to 7.30 with CsOH). Signals were recorded in voltage-clamp mode with a […] amplifier (Molecular Devices, Sunnyvale, Calif.). Whole cell access resistances were in the range of <25 MΩ before electrical compensation by about 70%. During voltage-clamp recordings, access resistance was monitored by measuring the size of the capacitative transient in response to a 5 mV step command and the data were abandoned if changes >20% were encountered. At least 10 min was allowed for equilibration of the pipette solution with the intracellular milieu before commencing mIPSC recordings. Intracellular signal was low-pass filtered at 3 kHz and data were acquired with Digidata 1440A and software CLAMPEX 10 (Molecular Devices) at a sampling frequency of 20 kHz.
Pharmacologically-isolated GABAAR-mediated mIPSCs were recorded as previously described (Liang (2007) and Shen (2011)). […] Data were analyzed using the Clampfit (Version 9.0, Molecular Devices) and the MiniAnalysis Program (versions 6.0.7, Synaptosoft, Decatur, Ga.).
The MiniAnalysis program (Synaptosoft, Decatur, Ga.) was used to analyze mIPSCs. Itonic is the averaged baseline currents of a given recording period. Itonic amplitude was calculated as the difference between the holding currents measured before and after picrotoxin (100 μM) or bicuculline (10 μM). See Wei, W., et al. (2004) J Neurosci 24, 8379-8382; Liang (2007); and Shen (2011). Briefly, the recordings were low-pass filtered off-line (Clampfit software) at 2 kHz. The mIPSCs were detected (Mini Analysis Program, version 6.0.7) with threshold criteria of 8 pA amplitude and 20 pA*ms charge transfer. The frequency of mIPSCs was determined from all automatically detected events in a given 100 s recording period. For kinetic analysis, only single event mIPSCs with a stable baseline, sharp rising phase (10 to 90% rise time), and exponential decay were chosen during visual inspection of the recording trace. Double and multiple peak mIPSCs were excluded. At least 100 individual mIPSC events were recorded under each experimental condition. The mIPSC kinetics was obtained from analysis of the averaged chosen single events aligned with half rise time in each cell. Decay time constants were obtained by fitting a double exponential to the falling phase of the averaged mIPSCs. Itonic magnitudes were obtained from the averaged baseline current of a given recording period. Itonic amplitude was calculated as the difference between the holding currents measured before and after the application of picrotoxin (50 μM) or bicuculline (10 μM). See Liang J et al (2007); Shen (2011); Hamann (2002); and Mangan P S, et al. (2005) Mol Pharmacol 67(3):775-788. The investigator performing the recordings and mIPSC analysis was blind to the treatment (vehicle, EtOH, E+D, or D) that the rats received.
After 48 hr withdrawal, whole-cell GABAAR-mediated currents were recorded on DGCs in hippocampal slices. In the vehicle group, bath application of EtOH (60 mM) enhanced Itonic from 28.8±3.1 to 62.1±3.3 pA (FIG. 13, panels A, G). […]

[2] = EtOH+DHM (E+D) group, 48 hr withdrawal

With `O=C1c2c(O)cc(O)cc2O[C@H](c2cc(O)c(O)c(O)c2)[C@H]1O` [DHM, (2R,3R)-3,5,7-trihydroxy-2-(3,4,5-trihydroxyphenyl)-2,3-dihydrochromen-4-one] the “time spent in closed arms” value ([1]; DHM group, 48 hr) was 1.52 ± 0.56 min, the “time spent in open arms” value ([1]; DHM group, 48 hr) was 2.92 ± 0.70 min and the “time spent in closed arms” value [1, 2] was 1.88 ± 0.79 min. For the same molecule, the “time spent in open arms” value [1, 2] was 2.68 ± 0.77 min, the “mIPSC area after acute EtOH (60 mM)” value (GABAARs; EtOH+DHM group) was 0.78±0.02 nC and the “mIPSC area before acute EtOH” value (GABAARs; EtOH+DHM group) was 0.70±0.03 nC. For the same molecule, the “Itonic before acute EtOH” value (GABAARs; rats treated with EtOH (5 g/kg) + DHM (1 mg/kg)) was 30.0±2.8 pA and 27.9±3.0 pA, the “Itonic after acute EtOH (60 mM)” value (GABAARs; rats treated with EtOH + DHM (1 mg/kg)) was 60.0±2.2 pA and 61.3±2.3 pA and the “mIPSC increase by acute EtOH (60 mM)” value (GABAARs; rats treated with EtOH + DHM) was 18.0±5.9%.
